Test results as given in patent publication EP0363836A2, “Use of homopiperazines in the preparation of a medicament for preventing or treating organ rejection reactions” (BEHRINGWERKE Aktiengesellschaft, priority 1988, dated 1990).

Key:
Fischer-Ratten = experiment: Rat tail skin transplantation, Lewis donor to Fischer recipient: graft survival time; format: in vivo; settings: d0-9, mean ± s of 5 animals
Text: (§1) In einem Experimentalansatz wurden Schwanzhautstückchen von Lewis Ratten mit einer Größe von etwa 0.5 x 1.0 cm auf den Schwanz von Fischer Ratten verpflanzt. In einem weiteren Modell wurde die Schwanzhaut von DA Ratten auf Lewis Ratten transplantiert. Die transplantierten Hautstücke werden vom Immunsystem der Empfängertiere als fremd erkannt und abgestoßen. Wie in Tabelle I zu sehen ist, betrug die Transplantüberlebenszeit im Lewis-Fischer-Rattenmodell in den Kontrollgruppen, die nur mit dem Lösungsmittel behandelt wurden zwischen 16 und 18 Tagen. Die Verbindung der Formel I mit R₁ = H wurde in verschiedenen Konzentrationen (1, 5, 10, 20 und 40 mg/kg Körpergewicht pro Injektion) an 10 aufeinanderfolgenden Tagen, beginnend mit dem Tag der Transplantation, entweder oral oder intraperitoneal verabreicht. Hierbei zeigt sich, daß sich durch verschiedene Konzentrationen der Substanz die Überlebenszeiten der Transplantate dosisabhängig von 15.8 ± 2.4 auf 26.8 ± 1.3 bzw. 18.4 ± 1.5 auf 28.4 ± 1.1 erhöhen ließen, wobei 10 mg/kg eine optimal wirksame Dosis zu sein scheinen.

Lewis Ratten = experiment: Rat tail skin transplantation, DA donor to Lewis recipient: graft survival time; format: in vivo; settings: d0-9, mean ± s of 5 animals, * p 0.001
Text: as §1
Auch im anderen Transplantationsmodell mit DA Ratten (Spender) und Lewis Ratten (Empfänger) kommt es zu einer Verlängerung der Transplantatüberlebenszeiten durch die Gabe von Homopiperazinen. Hier stoßen die nur mit dem Lösungsmittel behandelten Kontrolltiere das Transplantat ca. am Tag 12 ab. Durch die Behandlung (p.o. oder i.p. […]

**Q.** Which “Tage bis zur Abstoßung (x ± s)” value (Fischer-Ratten; 1 mg/kg, 10xip) does the source give for `CC(C)(C)c1cc(C(=O)N2CCCNCC2)cc(C(C)(C)C)c1O` [Verbindung der Formel I mit R¹ = H] here?
**A.** The value was “(22.8 ± 2.2) Tage”.

**Q.** What about the “Tage bis zur Abstoßung (x ± s)” value (Fischer-Ratten; 1 mg/kg, 10xpo) of the same compound?
**A.** The value was “(21.6 ± 1.3) Tage”.

**Q.** What about the “Tage bis zur Abstoßung (x ± s)” value (Fischer-Ratten; 5 mg/kg, 10xip) of the same compound?
**A.** Its value is “(25.0 ± 2.6) Tage”.

**Q.** What about the “Tage bis zur Abstoßung (x ± s)” value (Fischer-Ratten; 5 mg/kg, 10xpo) of the same compound?
**A.** Its value is “(25.2 ± 0.8) Tage”.

**Q.** And the “Tage bis zur Abstoßung (x ± s)” value (Fischer-Ratten; 10 mg/kg, 10xip)?
**A.** The value was “(26.8 ± 1.3) Tage”.

**Q.** What about the “Tage bis zur Abstoßung (x ± s)” value (Fischer-Ratten; 10 mg/kg, 10xip, listed as Verbindung der Formel I mit R₁ = H) of the same compound?
**A.** The value was 26.8 ± 1.3 Tage.

**Q.** And the “Tage bis zur Abstoßung (x ± s)” value (Fischer-Ratten; 10 mg/kg, 10xpo)?
**A.** Its value is “(28.4 ± 1.1) Tage”.

**Q.** What about the “Tage bis zur Abstoßung (x ± s)” value (Fischer-Ratten; 10 mg/kg, 10xpo, listed as Verbindung der Formel I mit R₁ = H) of the same compound?
**A.** Its value is 28.4 ± 1.1 Tage.

**Q.** And the “Tage bis zur Abstoßung (x ± s)” value (Fischer-Ratten; 20 mg/kg, 10xip)?
**A.** The value was “(25.2 ± 1.6) Tage”.

**Q.** What about the “Tage bis zur Abstoßung (x ± s)” value (Fischer-Ratten; 20 mg/kg, 10xpo) of the same compound?
**A.** The value was “(26.8 ± 0.8) Tage”.

**Q.** What about the “Tage bis zur Abstoßung (x ± s)” value (Fischer-Ratten; 40 mg/kg, 10xip) of the same compound?
**A.** Its value is “(22.4 ± 2.4) Tage”.

**Q.** What about the “Tage bis zur Abstoßung (x ± s)” value (Fischer-Ratten; 40 mg/kg, 10xpo) of the same compound?
**A.** The value was “(24.6 ± 2.0) Tage”.

**Q.** What about the “Tage bis zur Abstoßung (x ± s)” value (Lewis Ratten; 5 mg/kg, 5xip) of the same compound?
**A.** The value was “(16.0 ± 1.2)* Tage”.

**Q.** What about the “Tage bis zur Abstoßung (x ± s)” value (Lewis Ratten; 10 mg/kg, 5xip) of the same compound?
**A.** Its value is “(16.6 ± 1.8)* Tage”.

**Q.** What about the “Tage bis zur Abstoßung (x ± s)” value (Lewis Ratten; 10 mg/kg, 10xpo) of the same compound?
**A.** The value was “(16.6 ± 0.6)* Tage”.

**Q.** What about the “Tage bis zur Abstoßung (x ± s)” value (Lewis Ratten; 25 mg/kg, 5xip) of the same compound?
**A.** The value was “(17.8 ± 0.8)* Tage”.

**Q.** And the “Tage bis zur Abstoßung (x ± s)” value (Lewis Ratten; 25 mg/kg, 10xpo)?
**A.** Its value is “(17.4 ± 0.6)* Tage”.

**Q.** What about the “Tage bis zur Abstoßung (x ± s)” value (Lewis Ratten; 50 mg/kg, 5xip) of the same compound?
**A.** The value was “(19.6 ± 1.8)* Tage”.

**Q.** What about the “Tage bis zur Abstoßung (x ± s)” value (Lewis Ratten; 50 mg/kg, 10xpo) of the same compound?
**A.** Its value is “(18.6 ± 1.1)* Tage”.
